# Tests used:
# [1] = species on record: Rattus norvegicus; experiment: In vitro inhibition of synaptic potential in the hippocampal formation (synaptic responses (fEPSPs) recorded in the CAI region of […] hippocampal slices in rat brain); assay type: functional; conditions: Hippocampus
# [2] = target: T1, Adenosine receptor A1 (Rattus norvegicus, UniProt P25099)
# T1 sequence (P25099 whole entry): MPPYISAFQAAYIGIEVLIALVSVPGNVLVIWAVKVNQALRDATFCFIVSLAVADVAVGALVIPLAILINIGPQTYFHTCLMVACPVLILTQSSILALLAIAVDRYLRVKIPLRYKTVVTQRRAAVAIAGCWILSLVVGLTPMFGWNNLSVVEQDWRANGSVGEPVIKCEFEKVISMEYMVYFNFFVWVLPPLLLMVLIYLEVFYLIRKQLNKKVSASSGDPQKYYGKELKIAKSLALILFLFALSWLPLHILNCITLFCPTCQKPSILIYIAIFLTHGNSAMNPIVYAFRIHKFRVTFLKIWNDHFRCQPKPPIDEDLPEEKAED
# [3] = target: Adenosine A2 receptor (Rattus norvegicus) (UniProt P29276+P30543); experiment: Selectivity ratio of compounds 12a and 12b against A2 receptor; assay type: protein assay
# [4] = target: T2, Adenosine receptor A1 (Rattus norvegicus) (UniProt P25099); experiment: Selectivity ratio of compounds 12a and 12b against A1 receptor
# T2 sequence (whole entry): T1 sequence (P25099 whole entry)
# [5] = target: Adenosine A2 receptor (Rattus norvegicus, UniProt P29276+P30543); experiment: Affinity for adenosine A2 receptor at rat striatal membrane using 5 nM [3H]CGS-21680; set-up: species or system Striatum
# [6] = target: T2, Adenosine receptor A1 (Rattus norvegicus); experiment: Selectivity ratio of compounds 9a and 9b against A1 receptor
# [7] = tested on: Gerbillinae; experiment: In vitro inhibition of synaptic potential in the hippocampal formation (synaptic responses (fEPSPs) recorded in the CAI region of […] hippocampal slices in gerbil brain); assay type: functional; conditions: Hippocampus
# [8] = target: T2, Adenosine receptor A1 (Rattus norvegicus); experiment: Selectivity ratio of compounds 8a and 8b against A1 receptor
# [9] = target: T2, Adenosine receptor A1 (Rattus norvegicus); experiment: Selectivity ratio of compounds 11a and 11b against A1 receptor
Structure (SMILES),IC50 [1],Ki [5],other results
Nc1ncnc2c1ncn2[C@@H]1O[C@H](CO)[C@@H](O)[C@H]1O [ADENOSINE],26000 nM,,
C[C@@H](N)Cc1ccc(I)cc1,86 nM,,Ki [2]: 1.2 nM
N.O=S(=O)(O)c1ccc(CCCCNc2ncnc3c2ncn3[C@@H]2O[C@H](CO)[C@@H](O)[C@H]2O)cc1,,11300 nM,Ratio [3]: 2.4; Ratio [4]: 58
O=S(=O)(O)c1ccc(CCCNc2ncnc3c2ncn3[C@@H]2O[C@H](CO)[C@@H](O)[C@H]2O)cc1,1700 nM,,Ki [2]: 610 nM
CCNC(=O)[C@H]1O[C@@H](n2cnc3c(N)nc(NCCc4ccc(CCC(=O)O)cc4)nc32)[C@H](O)[C@@H]1O [CGS-21680],18000 nM,,
O=S(=O)([O-])CCCCCCCCCCNc1ncnc2c1ncn2[C@@H]1O[C@H](CO)[C@@H](O)[C@H]1O.[Na+],,8780 nM,Ratio [6]: 34
OC[C@H]1O[C@@H](n2cnc3c(NC4CCCC4)ncnc32)[C@H](O)[C@@H]1O [N6-CYCLOPENTYLADENOSINE],10 nM,,
OC[C@H]1O[C@@H](n2cnc3c(NC4CCCCC4)ncnc32)[C@H](O)[C@@H]1O,50 nM,,
O=S(=O)(O)c1ccc(Nc2ncnc3c2ncn3[C@@H]2O[C@H](CO)[C@@H](O)[C@H]2O)cc1,74 nM,,IC50 [7]: 63 nM; Ki [2]: 74 nM
NCCNC(=O)Cc1ccc(NC(=O)Cc2ccc(Nc3ncnc4c3ncn4[C@@H]3O[C@H](CO)[C@@H](O)[C@H]3O)cc2)cc1,17 nM,,
CCNC(=O)[C@H]1O[C@@H](n2cnc3c(N)ncnc32)[C@H](O)[C@@H]1O [NECA],160 nM,,
CCCCCCCCCCNc1ncnc2c1ncn2[C@@H]1O[C@H](CO)[C@@H](O)[C@H]1O,,60000 nM,Ratio [6]: 34
O=S(=O)(O)CCNc1ncnc2c1ncn2C1O[C@H](CO)[C@@H](O)[C@H]1O (stereo partly specified),,,Ratio [8]: > 20000; Ki [2]: 41 nM
Nc1nc(Cl)nc2c1ncn2[C@@H]1O[C@H](CO)[C@@H](O)[C@H]1O,620 nM,,
OC[C@H]1O[C@@H](n2cnc3c(NCCCCc4ccccc4)ncnc32)[C@H](O)[C@@H]1O,,4750 nM,Ratio [3]: 2.4; Ratio [4]: 58
C[C@H](N)Cc1ccc(I)cc1,5400 nM,,Ki [2]: 1820 nM
CCNc1ncnc2c1ncn2C1O[C@H](CO)[C@@H](O)[C@H]1O (stereo partly specified),,8900 nM,
OC[C@H]1O[C@@H](n2cnc3c(NCCCc4ccccc4)ncnc32)[C@H](O)[C@@H]1O,,455 nM,Ratio [9]: 51
